Laboratory results taken from US20200368371A1, “DYE-PROTEIN COMPLEX FOR NIR II AND PHOTOACOUSTIC IMAGING” (The Board of Trustees of the Leland Stanford Junior …, priority 2019, published 2020).

Key:
C57BL/6 mice = assay: In vivo NIR-II imaging of lymphatic system
Protocol: A gentle massage was performed on the injection site for faster diffusion into the lymphatic system.
Before imaging, all mice were anesthetized in a rodent anesthesia machine with 2 L/min O^2 gas mixed with 3% Soflurane. C57BL/6 mice were used for the vascular and lymphatic system NIR-II imaging. […] A gentle massage was performed at the injection site to increase the speed of diffusion into the lymphatic system. […] All groups within the study contained n=3 mice.
All NIR-II images were collected on a two-dimensional InGaAs array NIR-II system (Princeton Instruments). The excitation was provided by an 808 nm diode laser through an optical fiber and collimator. Fluorescence emission was collected with 1000 nm or more than 1000 nm long-pass filters (Thorlabs). A lens set was used to obtain tunable magnifications ranging from 1× (whole body) to 2.5× (high magnification) by changing the relative position of two NIR achromats (75 mm and 200 mm, Thorlabs). Image J software were used for analyzing the images.
The fluorescence measurement was performed to quantify NIR-II fluorescence signal intensity through the Image J software (National Institutes of Health, Bethesda, Md.). The line graphs and Gaussian-fitted FWHM were analysis by origin 8.5 (OriginLab Corporation, Northampton, Mass.).

[1] = Absorbance spectra in deionized water; format: physicochemical; details: DI water
Source text: Absorbance spectra of IR-820 and complexes were taken on an ultraviolet-visible-NIR Cary 60 spectrometer (Agilent Technologies) with background correction.

[2] = Fluorescence intensity at different concentrations of IR-820 in deionized water and PBS; format: physicochemical
Protocol: IR-820 was first dissolved in deionized water, and then added to deionized water or PBS to determine the optimal concentration. […] 10 μM was determined as the concentration for other studies. […] Different HSA: IR-820 ratios were prepared while keeping IR-820 at a constant 10 μM to determine the approximate binding stoichiometry.

[3] = all light conditions; cited from earlier work
[4] = prone position, subcutaneous footpad injection

With `CC1(C)C(=CC=C2CCCC(C=CC3=[N+](CCCCS(=O)(=O)[O-])c4ccc5ccccc5c4C3(C)C)=C2Cl)N(CCCCS(=O)(=O)[O-])c2ccc3ccccc3c21.[Na+]` [IR-820] the “identification of the inguinal lymph node” value (C57BL/6 mice; left side, subcutaneous injection) was “failed”, the “FWHM of lymphatic vessels” value (C57BL/6 mice; [4]) was “unmeasurable” and the “SBR of lymphatic vessels” value (C57BL/6 mice; [4]) was 1.33. The absorbance strong peak [1] was 690 nm, the absorbance weak shoulder [1] was 815 nm and the “behaviour in PBS” value [2] was “poor solubility or severe quenching”. For the same compound, the “stability in aqueous solution” value [3] was “greater stability than ICG”.
